Among the data in patent US11712438B2, “Phenyl derivatives as PGE2 receptor modulators” (IDORSIA PHARMACEUTICALS LTD, priority 2017, dated 2023) are IC50 values, retold here.

The term IC50 denotes the midpoint of a concentration-inhibition curve. The low end stands for inhibition by little substance, the high end for a need for much substance.

Among the targets are PTRGER4 (EP4) (Homo sapiens, UniProt P35408); EP2 (Homo sapiens, UniProt P43116); EP4 (Homo sapiens, UniProt P35408).
Common to all, as to assay: cell-based

Sequence of EP2 (P43116 whole entry): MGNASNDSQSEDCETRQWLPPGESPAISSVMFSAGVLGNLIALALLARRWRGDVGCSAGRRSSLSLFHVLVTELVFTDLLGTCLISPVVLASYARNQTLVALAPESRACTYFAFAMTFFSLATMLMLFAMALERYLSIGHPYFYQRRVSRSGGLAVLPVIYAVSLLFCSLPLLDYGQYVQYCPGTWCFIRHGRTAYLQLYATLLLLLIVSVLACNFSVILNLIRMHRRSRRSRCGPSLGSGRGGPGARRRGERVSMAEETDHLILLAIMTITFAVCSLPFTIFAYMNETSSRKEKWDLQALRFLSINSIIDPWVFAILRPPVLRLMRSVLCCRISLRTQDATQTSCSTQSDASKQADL
Sequence of PTRGER4 (EP4) (P35408 whole entry): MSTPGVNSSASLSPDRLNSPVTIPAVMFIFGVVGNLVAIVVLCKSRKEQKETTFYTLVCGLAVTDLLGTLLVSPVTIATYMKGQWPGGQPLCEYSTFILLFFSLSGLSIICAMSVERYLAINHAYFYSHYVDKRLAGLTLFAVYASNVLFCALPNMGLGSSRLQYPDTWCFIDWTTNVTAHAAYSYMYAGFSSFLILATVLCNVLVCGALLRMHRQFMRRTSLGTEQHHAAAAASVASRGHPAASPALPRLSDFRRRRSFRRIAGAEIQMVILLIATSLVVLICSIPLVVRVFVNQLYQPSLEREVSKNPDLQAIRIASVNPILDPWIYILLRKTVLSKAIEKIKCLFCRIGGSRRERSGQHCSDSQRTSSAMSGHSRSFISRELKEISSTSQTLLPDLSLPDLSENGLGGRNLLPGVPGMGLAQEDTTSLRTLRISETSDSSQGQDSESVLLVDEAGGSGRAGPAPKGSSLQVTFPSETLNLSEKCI
Sequence of EP4 (P35408 whole entry): as above
Description for PTRGER4 (EP4): The assay is using the PathHunter™ HEK 293 PTGER2 and PTGER4 b-arrestin cell lines from DiscoverX. The system is based on the Enzyme Fragment Complementation Technology. Two complementing fragments of the b-galactosidase enzyme are expressed within stably transfected cells. The larger portion of b-gal, termed EA for Enzyme Acceptor, is fused to the C-terminus of b-arrestin 2. The smaller fragment, termed ProLink™ tag, is fused to PTGER2 (EP2) or PTRGER4 (EP4) at the C-terminus. Upon activation, b-arrestin is recruited which forces the interaction of ProLink and EA, allowing complementation of the two fragments of b-gal and the formation of a functional enzyme which is capable of hydrolysing the substrate and generating a chemiluminescent signal.
The HEK 293 PTGER4 b-arrestin cells (DiscoverX 93-030-4C1) are detached from culture dishes with a cell dissociation buffer (Invitrogen, 13151-014), and collected in growing medium (GM: DMEM+Glutamax-I (Invitrogen 32430)/10% FCS, 1% Penicilin/streptomycin). 5000 cells per well of a 384 well plate (white with white bottom Greiner 781080) are seeded in 20 ul per well of GM. Plate is incubated at 37° C., 5% CO2 for 24 hours.
Stock solutions of test compounds are made at a concentration of 10 mM in DMSO, and serially diluted in DMSO to concentrations required for inhibition dose response curves (tested concentration range 10 μM-2 nM or 1 μM-0.2 nM).
PGE2 (Cayman 14010, stock solution: 100 uM in DMSO) is used as agonist at 20 nM final concentration, corresponding to EC80.
Five microliters of diluted compounds are transferred into the assay plate. Plate is pre-incubated 15 minutes at 37° C. Then five microliters of PGE2 (final conc. 20 nM) are transferred into the assay plate. Plate is incubated 120 minutes at 37° C.
Twelve μl of reagent are transferred to the assay plate and incubate for 1 hour at room temperature in the dark. Luminescence counts are read on a BMG Fluostar Optima reader according to manufacturers instructions.
For each compound concentration calculate of the percentage of activity compared to DMSO control value as average±STDEV. (each concentration is measured in duplicate)
When compounds were measured multiple times, mean values are given.

On to `CCOc1cc(-c2cc(NCCc3ccc(Br)cc3)ncn2)sc1Cc1noc(=O)[nH]1` [Example 137, 3-(5-{6-[2-(4-Bromo-phenyl)-ethylamino]-pyrimidin-4-yl}-3-ethoxy-thiophen-2-ylmethyl)-[1,2,4]oxadiazol-5(4H)-one], for which the values for the IC50 against PTRGER4 (EP4), at EP2 and against EP4 were 411 nM, 371 nM and 963 nM, respectively.

As to `CCOc1cc(-c2cc(NCCc3ccc(N(C)C)cc3F)ncn2)sc1-c1noc(=O)[nH]1` [Example 161, 3-(5-{6-[2-(4-Dimethylamino-2-fluoro-phenyl)-ethylamino]-pyrimidin-4-yl}-3-ethoxy-thiophen-2-yl)[1,2,4]oxadiazol-5(4H)-one], the half-inhibitory concentration (IC50) against PTRGER4 (EP4) was found to be 10 nM; against EP2, 713 nM; on EP4, 40 nM.

Consider `Cc1ccc(CCNc2cc(-c3ccc(C(=O)O)c(OC4CCC4)c3)ncn2)cc1C` [Example 20, 2-Cyclobutoxy-4-{6-[2-(3,4-dimethyl-phenyl)-ethylamino]-pyrimidin-4-yl}-benzoic acid], for which the IC50 stood at 446 nM at PTRGER4 (EP4), 498 nM at EP2 and 574 nM at EP4.

On to `CCOc1cc(-c2cc(NCCc3ccc(Br)cc3OC(F)(F)F)ncn2)sc1-c1noc(=O)[nH]1` [Example 84, 3-(5-{6-[2-(4-Bromo-2-trifluoromethoxy-phenyl)-ethylamino]-pyrimidin-4-yl}-3-ethoxy-thiophen-2yl)-[1,2,4]oxadiazol-5(4H)-one], for which the figures for the IC50 against PTRGER4 (EP4), at EP2 and at EP4 were 116 nM, 358 nM and 166 nM, respectively.

For `CCOc1cc(-c2cc(NCCc3ccc(OC)c(Cl)c3)ncn2)sc1-c1noc(=O)[nH]1` [Example 122, 3-(5-{6-[2-(3-Chloro-4-methoxy-phenyl)-ethylamino]-pyrimidin-4-yl}-3-ethoxy-thiophen-2yl)-[1,2,4]oxadiazol-5(4H)-one], the results for the IC50 at PTRGER4 (EP4), at EP2 and on EP4 were 8 nM, 906 nM and 19 nM, respectively.

`Oc1cc(-c2ccc(-c3cc(NCCc4c(F)cc(Br)cc4F)ncn3)cc2)on1` [Example 33, 5-(4-{6-[2-(4-Bromo-2,6-difluoro-phenyl)-ethylamino]-pyrimidin-4-yl}-phenyl)-isoxazol-3-ol]: the results for the IC50 against PTRGER4 (EP4), at EP2 and on EP4 were 156 nM, 1130 nM and 149 nM, respectively.

Turning to `CCOc1cc(-c2cc(NCCc3ccc(Cl)cc3NC)ncn2)sc1-c1noc(=O)[nH]1` [Example 91, 3-(5-{6-[2-(4-Chloro-2-methylamino-phenyl)-ethylamino]-pyrimidin-4-yl}-3-ethoxy-thiophen-2yl)-[1,2,4]oxadiazol-5(4H)-one], the 50% inhibitory concentration (IC50) stood at 42 nM against PTRGER4 (EP4), 2840 nM against EP2 and 335 nM on EP4.

Consider `CCOc1cc(-c2cc(NCCc3cc(OC)cc(OC)c3)ncn2)sc1C(=O)O` [Example 67, 5-{6-[2-(3,5-Dimethoxy-phenyl)-ethylamino]-pyrimidin-4-yl}-3-ethoxy-thiophene-2-carboxylic acid], for which the IC50 was determined as 261 nM on PTRGER4 (EP4), 712 nM against EP2 and 245 nM against EP4.

Take `NC(=O)c1sc(-c2cc(NCCc3c(F)cc(Br)cc3F)ncn2)cc1C(F)(F)F` [Example 134, 5-{6-[2-(4-Bromo-2,6-difluoro-phenyl)-ethylamino]-pyrimidin-4-yl}-3-trifluoromethyl-thiophene-2-carboxylic acid amide]: the IC50 was determined as 98 nM at PTRGER4 (EP4), 284 nM on EP2 and 718 nM against EP4.

For the compound `CCOc1cc(-c2cc(NCCc3ccc(Br)cc3)ncn2)sc1C(=N)NO` [Example 129, 5-{6-[2-(4-Bromo-phenyl)-ethylamino]-pyrimidin-4-yl}-3-ethoxy-N-hydroxy-thiophene-2-carboxamidine], the results for the IC50 at PTRGER4 (EP4), at EP2 and against EP4 were 45 nM, 372 nM and 247 nM, respectively.

`CCOc1cc(-c2cc(NCCc3ccc(Br)cc3)ncn2)sc1-c1noc(OC)n1` [Example 140, [2-(4-Bromo-phenyl)-ethyl]-{6-[4-ethoxy-5-(5-methoxy-[1,2,4]oxadiazol-3-yl)-thiophen-2-yl]-pyrimidin-4-yl}-amine]: the half-maximal inhibitory concentration (IC50) at PTRGER4 (EP4) is 12 nM; on EP2 it was 345 nM; against EP4, 218 nM.

Take `CCOc1cc(-c2cc(NCCc3ccc(OC)cc3)ncn2)sc1C(=O)O` [Example 60, 3-Ethoxy-5-{6-[2-(4-methoxy-phenyl)-ethylamino]-pyrimidin-4-yl}-thiophene-2-carboxylic acid]: the IC50 came to 139 nM against PTRGER4 (EP4), 376 nM at EP2 and 81 nM at EP4.

On to `CCOc1cc(-c2cc(NCCc3cccc(Br)c3)ncn2)sc1C(=O)O` [Example 79, 5-{6-[2-(3-Bromo-phenyl)-ethylamino]-pyrimidin-4-yl}-3-ethoxy-thiophene-2-carboxylic acid], for which the results for the IC50 on PTRGER4 (EP4), against EP2 and at EP4 were 203 nM, 408 nM and 106 nM, respectively.

For `CCOc1cc(-c2cc(NCCc3ccc(Br)cc3)ncn2)sc1C(N)=O` [Example 128, 5-{6-[2-(4-Bromo-phenyl)-ethylamino]-pyrimidin-4-yl}-3-ethoxy-thiophene-2-carboxylic acid amide], the IC50 against PTRGER4 (EP4) was found to be 34 nM; at EP2, 629 nM; on EP4, 235 nM.

For `O=C(O)c1sc(-c2cc(NCCc3ccc(C(F)(F)F)cc3)ncn2)cc1F` [Example 22, 3-Fluoro-5-{6-[2-(4-trifluoromethyl-phenyl)-ethylamino]-pyrimidin-4-yl}-thiophene-2-carboxylic acid], the IC50 is 187 nM on PTRGER4 (EP4), 759 nM at EP2 and 68 nM on EP4.

On to `CCOc1cc(-c2cc(NCCc3ccc(Br)cc3N3CCCC3)ncn2)sc1-c1noc(=O)[nH]1` [Example 112, 3-(5-{6-[2-(4-Bromo-2-pyrrolidin-1-yl-phenyl)-ethylamino]-pyrimidin-4-yl}-3-ethoxy-thiophen-2yl)-[1,2,4]oxadiazol-5(4H)-one], for which the IC50 on PTRGER4 (EP4) was 80 nM; at EP2, 892 nM; on EP4 it was 192 nM.

`CCOc1cc(-c2cc(NCCc3cc(Cl)ccc3C#N)ncn2)sc1-c1noc(=O)[nH]1` [Example 160, 4-Chloro-2-(2-{6-[4-ethoxy-5-(5-oxo-4,5-dihydro-[1,2,4]oxadiazol-3-yl)-thiophen-2-yl]-pyrimidin-4-ylamino}-ethyl)-benzonitrile]: the results for the IC50 against PTRGER4 (EP4), at EP2 and at EP4 were 134 nM, 318 nM and 256 nM, respectively.

Regarding `Brc1ccc(CCNc2cc(-c3ccc(Cc4nnn[nH]4)s3)ncn2)cc1` [Example 288, [2-(4-Bromo-phenyl)-ethyl]-{6-[5-(1H-tetrazol-5-ylmethyl)-thiophen-2-yl]-pyrimidin-4-yl}-amine], the IC50 at PTRGER4 (EP4) came to 1190 nM; at EP2, 739 nM; at EP4, 775 nM.

For the compound `O=c1nc(-c2ccc(-c3cc(NCCc4c(F)cc(Br)cc4F)ncn3)cc2)o[nH]1` [Example 34, 5-(4-(6-((4-Bromo-2,6-difluorophenethyl)amino)pyrimidin-4-yl)phenyl)-[1,2,4]oxadiazol-3(2H)-one], the results for the IC50 at PTRGER4 (EP4), on EP2 and against EP4 were 261 nM, 437 nM and 676 nM, respectively.

For `CCOc1cc(-c2cc(NCCc3ccc(Br)cc3CC)ncn2)sc1-c1noc(=O)[nH]1` [Example 104, 3-(5-{6-[2-(4-Bromo-2-ethyl-phenyl)-ethylamino]-pyrimidin-4-yl}-3-ethoxy-thiophen-2-yl)-[1,2,4]oxadiazol-5(4H)-one], the IC50 on PTRGER4 (EP4) is 101 nM; on EP2, 956 nM; at EP4 it was 399 nM.

In the case of `NC(=O)Cc1ccc(-c2cc(NCCc3ccc(Br)cc3)ncn2)s1` [Example 158, 2-(5-{6-[2-(4-Bromo-phenyl)-ethylamino]-pyrimidin-4-yl}-thiophen-2-yl)-acetamide], the IC50 came out at 2270 nM on PTRGER4 (EP4), 643 nM against EP2 and 913 nM on EP4.

Regarding `CCOc1cc(-c2cc(NCCc3ccc(C)cc3C)ncn2)sc1C(=O)O` [Example 57, 5-{6-[2-(2,4-Dimethyl-phenyl)-ethylamino]-pyrimidin-4-yl}-3-ethoxy-thiophene-2-carboxylic acid], the IC50 against PTRGER4 (EP4) worked out at 1160 nM; on EP2, 295 nM; at EP4 it was 166 nM.

Turning to `CCOc1cc(-c2cc(NCCc3ccc(Br)cc3)ncn2)sc1CCc1noc(=O)[nH]1` [Example 144, 3-[2-(5-{6-[2-(4-Bromo-phenyl)-ethylamino]-pyrimidin-4-yl}-3-ethoxy-thiophen-2-yl)-ethyl]-[1,2,4]oxadiazol-5(4H)-one], the values for the IC50 on PTRGER4 (EP4), at EP2 and at EP4 were 126 nM, 1000 nM and 433 nM, respectively.

As for `CCOc1cc(-c2cc(NCCc3cccc(F)c3)ncn2)sc1C(=O)O` [Example 81, 3-Ethoxy-5-{6-[2-(3-fluoro-phenyl)-ethylamino]-pyrimidin-4-yl}-thiophene-2-carboxylic acid], the IC50 against PTRGER4 (EP4) turned out to be 554 nM; on EP2, 318 nM; at EP4, 125 nM.

With `CCOc1cc(-c2cc(NCCc3ccc(OC)c(Br)c3)ncn2)sc1C(=O)O` [Example 74, 5-{6-[2-(3-Bromo-4-methoxy-phenyl)-ethylamino]-pyrimidin-4-yl}-3-ethoxy-thiophene-2-carboxylic acid], the IC50 against PTRGER4 (EP4) worked out at 90 nM; against EP2, 533 nM; at EP4, 33 nM.

For the compound `CCOc1cc(-c2cc(NCCc3ccc(Br)cc3)ncn2)sc1-c1noc(=S)[nH]1` [Example 132, 3-(5-{6-[2-(4-Bromo-phenyl)-ethylamino]-pyrimidin-4-yl}-3-ethoxy-thiophen-2-yl)-[1,2,4]oxadiazole-5(4H)-thione], the IC50 on PTRGER4 (EP4) was found to be 6 nM; against EP2, 594 nM; against EP4, 60 nM.

As for `CCOc1cc(-c2cc(NCCc3cccc(Cl)c3)ncn2)sc1C(=O)O` [Example 77, 5-{6-[2-(3-Chloro-phenyl)-ethylamino]-pyrimidin-4-yl}-3-ethoxy-thiophene-2-carboxylic acid], the IC50 against PTRGER4 (EP4) came out at 121 nM; against EP2, 415 nM; against EP4 it was 108 nM.
